# Measurements taken from US20250152557A1, “METHODS FOR TREATING SUBJECTS WITH ABDOMINAL OBESITY […] AND/OR IMPAIRED GLUCOSE” (NOVO NORDISK A/S, priority 2022, published 2025).
# What was measured:
# [1] = system: subjects with metabolic syndrome; assay: Phase 1b study, Columbia Suicidality Severity Rating Scale (C-SSRS); assay type: in vivo, human; conditions: INV-202 group, EOT; 25 mg oral daily for 28 days
# Excerpt: A suicide risk assessment will be performed using the C-SSRS questionnaire at screening, Day −1 (if more than 21 days have passed since the screening C-SSRS), Day 29 (+2 days) and at the FU Visit/EOS/ET on Day 35 (+2 days).
# This scale will be administered by a member of the medical team, completed on site, and will be on paper. The “Lifetime” C-SSRS questionnaire template will be used at the screening visit and on Day −1 (if applicable), and the “since last visit” C-SSRS questionnaire template will be used on Day 29 (+2 days) and at the FU Visit/EOS/ET. If the Investigator determines that a subject is at risk of suicide or self-harm, he/she must immediately be discontinued from the study and appropriate measures to ensure the subject's safety and obtain mental health evaluation must be implemented. The event should be recorded as either an AE or a SAE, as determined by the Investigator, and reported within 24 hours to the Sponsor.
# [2] = system: subjects with metabolic syndrome; assay: Phase 1b study, liver safety (liver chemistry); assay type: in vivo, human
# Excerpt: (§1) The following will be assessed: sodium, potassium, chloride, glucose, blood urea nitrogen, creatinine, creatinine clearance, direct bilirubin, indirect bilirubin, bilirubin total, ALP, AST, ALT, albumin, lactate dehydrogenase, calcium, lipase, amylase, phosphorus, HbA1C, serum ferritin and total protein.
# The hepatic safety of all randomized subjects will be assessed through the use of the following algorithm based on FDA DILI management guidelines (Center for Drug Evaluation and Research (CDER), FDA. Guidance for Industry: Drug-Induced Liver Injury: Premarketing Clinical Evaluation. July 2009).
# An increase of serum ALT or AST>3×ULN should be followed by repeat testing within 48 to 72 hours of all four of the usual serum measures (ALT, AST, ALP, and TBL) to confirm the abnormalities and to determine if they are increasing or decreasing. There also should be inquiry made about symptoms.
# [3] = system: subjects with metabolic syndrome; assay: Phase 1b study, vital signs; assay type: in vivo, human; conditions: 25 mg oral daily for 28 days
# Excerpt: BP, HR, RR and OT will be measured at screening and pre-dose on Days 1, 8, 15, and 22, on Day 29 (+2 days), and at the FU Visit/EOS/ET on Day 35 (+2 days). Vital signs will be measured in a sitting position (except for safety reasons and when ECG are planned around the same time). When vital signs measurements coincide with a blood draw, they should preferably be performed before the blood collection, whenever possible.
# [4] = system: subjects with metabolic syndrome; assay: Phase 1b study, pharmacodynamic effects of INV-202 over 28 days (weight, waist, lipids, glucose, endocrine and renal markers); assay type: in vivo, human
# Description: A phase 1b study to examine the pharmacokinetic and pharmacodynamic effects of INV-202 in subjects with metabolic syndrome as defined by hypertriglyceridemia, abdominal obesity, and impaired glucose tolerance over 28 days was performed.
# This is single center, Phase 1B, randomized, double-blind, placebo-controlled, 28-day repeat dose study.
# The study includes subjects with evidence of metabolic syndrome and glucose intolerance that are randomized 1:1 to receive either INV-202 or placebo. 20 subjects will receive 25 mg of INV-202 and 20 subjects will receive a matching placebo daily for 28 consecutive days, for a total of 40 subjects.
# Subjects will receive a daily oral dose of INV-202 25 mg or a matching placebo for 28 consecutive days.
# Body measurements performed at screening will include height and weight measurements, waist circumference, as well as BMI calculation. Height will only be measured at screening. Weight and waist circumference will also be measured pre-dose on Days 1, 8, 15, and 22, and on Day 29 (+2 days). BMI will be calculated as needed.
# Weight and waist circumference will be measured in triplicate using a standard measuring method. The same scale should be used at all visits for a given subject. The scale should be calibrated according to the manufacturer's recommendation. A medical grade scale for weight should be used.
# as §1
# In addition, a lipid profile will also be assessed: total cholesterol, HDL, LDL, VLDL and triglycerides. […]
# The following will be assessed only pre-dose on Days 1, 8, 15, and 22, on Day 29 (+2 days), and at the FU Visit/EOS/ET on Day 35 (+2 days): C-peptide, insulin, TSH, and T4.
# The OGTT will be performed at screening, on Day −1, and on Day 29 (+2 days). The OGTT will not need to be performed at screening if there is evidence of HbA1C≥5.7% but ≤6.4% obtained within the last 3 months.
# For the OGTT performed on Day 29 (+2 days), a 75 g glucose load will be administered with blood draws at 30 minutes, 1 hour, 2 hours and 3 hours post-intake.
# The following PD parameters will be evaluated: • 1) 0-3 hour AUC blood glucose level during OGTT • 2) Plasma insulin level—change from baseline to EOS/ET • 3) C-peptide level—change from baseline to EOS/ET • 4) Plasma lipid profile (HDL, LDL, VLDL, triglycerides)—change from baseline to EOS/ET • 5) Adiponectin and leptin—change from baseline to EOS/ET • 6) hs-CRP—change from baseline to EOS/ET • 7) Weight—change from baseline to EOS/ET • 8) Waist circumference—change from baseline to EOT/ET • 9) Appetite and Food Intake questionnaire score—change from baseline to EOT/ET • 10) Urine albumin to creatinine ratio—change from baseline to EOS/ET
# All PD analyses will be descriptive only and no formal statistical analysis is planned. Descriptive statistics will be used to describe change from baseline in values including glucose AUC during OGTT, fasting insulin level and C-peptide levels, lipids (e.g., triglycerides, HDL), adiponectin and other biomarkers. Exploratory analysis in PD versus AEs may be performed to evaluate the Exposure-Response.
# [5] = system: DIO mouse model; assay: Effect on body weight and metabolic parameters in DIO mouse model; assay type: in vivo
# Excerpt: The effect of INV-202 on body weight and food consumption was studied in a DIO mouse model.
# [6] = background statement, cited from earlier work
# [7] = 25 mg oral daily for 28 days, SD in next cell
# [8] = 25 mg oral daily for 28 days, Table 3, SD in next cell
# [9] = 25 mg oral daily for 28 days, endocrine lab data, Table 3
# [10] = following 28-days of repeat dosing
smiles,measurement,setting,value
"CC(=O)N/C(N)=N/C(=N\S(=O)(=O)c1ccc(C(F)(F)F)cc1)N1C[C@H](c2ccccc2)C(c2ccc(Cl)cc2)=N1 [INV-202, N-{[(S)-{[3-(4-chlorophenyl)-4-phenyl-4,5-dihydro-1H-pyrazol-1-yl][4-(trifluoromethyl)benzenesulfonamido]methylidene}amino]methanimidoyl}acetamide]",C-SSRS: Non-specific active suicidal thoughts,[1],0
same,C-SSRS: Suicidal behaviour,[1],0
same,C-SSRS: Wished to be dead,[1],0
same,liver chemistry,[2]; all patients throughout the study,within normal limits
same,"changes for bilirubin (total, direct, indirect) or transaminases (AST and ALT)",[2]; throughout the study,no significant changes
same,"Diastolic Blood Pressure (DBP), change from baseline",[3],−0.25 mmHg
same,"Heart Rate, change from baseline",[3],2.3 bpm
same,"Systolic Blood Pressure (SBP), change from baseline",[3],−4.65 mmHg
same,"Temp, change from baseline",[3],−0.045 °C
same,"BMI, change from baseline",[4]; 25 mg oral daily for 28 days,−1.20 kg/m^2
same,"HDL (%), change from baseline",[4]; 25 mg oral daily for 28 days,0.13%
same,"Triglycerides (%), change from baseline",[4]; 25 mg oral daily for 28 days,−7.9%
same,"OGTT (0-3 hour AUC blood glucose), change from baseline","[4]; 25 mg oral daily for 28 days, 75 g glucose load, SD in next cell",2.24 mmol·h/L
same,"C-peptide, change from baseline",[4]; [7],0.036 nmol/L
same,"HDL, change from baseline",[4]; [7],0.0015 mmol/L
same,"HgbA1C, change from baseline",[4]; [7],−0.005%
same,"Insulin, change from baseline",[4]; [7],-5.0 pmol/L
same,"LDL, change from baseline",[4]; [7],-0.50 mmol/L
same,"Total Chol., change from baseline",[4]; [7],-0.56 mmol/L
same,"Triglycerides, change from baseline",[4]; [7],-0.179 mmol/L
same,"VLDL, change from baseline",[4]; [7],-0.08 mmol/L
same,"Waist, change from baseline",[4]; [7],−1.91 cm
same,"Weight (%), change from baseline",[4]; [7],−3.33%
same,"Weight, change from baseline",[4]; [7],-3.50 kg
same,"hs-CRP, change from baseline",[4]; [7],-1.6 mg/L
same,Leptin (%),"[4]; 25 mg oral daily for 28 days, Table 3",−18%
same,Adiponectin,[4]; [8],0.15 mg/L
same,Leptin,[4]; [8],-2.64 µg/L
same,T4,[4]; [9],0.516 pmol/L
same,TSH,[4]; [9],−0.014 mIU/L
same,eGFR (CKD-EPI 2021),"[4]; 25 mg oral daily for 28 days, renal lab data, Table 3",3.23 mL/min/1.73 m2
same,maximum weight loss by percentage,"[4]; after 28 days of treatment, individual patient maximum",6%
same,lowest weight loss by percentage,"[4]; after 28 days of treatment, individual patient minimum",0.1%
same,average weight loss at first clinic visit,"[4]; day 8, statistically significant",1.4%
same,weight change of individual patients,[4]; every single patient on INV-202,lost weight
same,C-peptide levels,[5],significant effects in reducing C-peptide levels
same,glucose AUC in an OGTT test,[5],decreased glucose AUC
same,insulin levels,[5],significant effects in reducing
same,ALT,[5]; [10],significantly decreased ALT
same,liver triglyceride,[5]; [10],significantly decreased
same,body weight,[5]; following 10 days of dosing,dose dependently reduce body weight
Cc1c(C(=O)NN2CCCCC2)nn(-c2ccc(Cl)cc2Cl)c1-c1ccc(Cl)cc1 [Rimonabant],efficacy in metabolic syndrome,[6],effective in treating metabolic syndrome
same,side effects,[6]; resulted in withdrawal from the market,caused neuropsychiatric (i.e. CNS-related) side effects
